Assay results: patent publication US10717716B2, “1,3,4-oxadiazole derivative compounds as histone deacetylase 6 inhibitor, and the pharmaceutical composition comprising the same” (Chong Kun Dang Pharmaceutical Corp., priority 2015, dated 2020)

Assays:
human recombinant HDAC6 = target: T1, human recombinant HDAC6 (Homo sapiens, UniProt Q9UBN7); assay: HDAC6 enzyme activity inhibition assay (HDAC Fluorimetric Drug Discovery Kit); assay type: biochemical; conditions: for HDAC6 selectivity (fold): HDAC6 over HDAC1; for IC50: human recombinant HDAC6, same protocol as HDAC1, read-out: HDAC6
T1 construct: purchased Calbiochem 382180
T1 sequence (Q9UBN7 1-1215): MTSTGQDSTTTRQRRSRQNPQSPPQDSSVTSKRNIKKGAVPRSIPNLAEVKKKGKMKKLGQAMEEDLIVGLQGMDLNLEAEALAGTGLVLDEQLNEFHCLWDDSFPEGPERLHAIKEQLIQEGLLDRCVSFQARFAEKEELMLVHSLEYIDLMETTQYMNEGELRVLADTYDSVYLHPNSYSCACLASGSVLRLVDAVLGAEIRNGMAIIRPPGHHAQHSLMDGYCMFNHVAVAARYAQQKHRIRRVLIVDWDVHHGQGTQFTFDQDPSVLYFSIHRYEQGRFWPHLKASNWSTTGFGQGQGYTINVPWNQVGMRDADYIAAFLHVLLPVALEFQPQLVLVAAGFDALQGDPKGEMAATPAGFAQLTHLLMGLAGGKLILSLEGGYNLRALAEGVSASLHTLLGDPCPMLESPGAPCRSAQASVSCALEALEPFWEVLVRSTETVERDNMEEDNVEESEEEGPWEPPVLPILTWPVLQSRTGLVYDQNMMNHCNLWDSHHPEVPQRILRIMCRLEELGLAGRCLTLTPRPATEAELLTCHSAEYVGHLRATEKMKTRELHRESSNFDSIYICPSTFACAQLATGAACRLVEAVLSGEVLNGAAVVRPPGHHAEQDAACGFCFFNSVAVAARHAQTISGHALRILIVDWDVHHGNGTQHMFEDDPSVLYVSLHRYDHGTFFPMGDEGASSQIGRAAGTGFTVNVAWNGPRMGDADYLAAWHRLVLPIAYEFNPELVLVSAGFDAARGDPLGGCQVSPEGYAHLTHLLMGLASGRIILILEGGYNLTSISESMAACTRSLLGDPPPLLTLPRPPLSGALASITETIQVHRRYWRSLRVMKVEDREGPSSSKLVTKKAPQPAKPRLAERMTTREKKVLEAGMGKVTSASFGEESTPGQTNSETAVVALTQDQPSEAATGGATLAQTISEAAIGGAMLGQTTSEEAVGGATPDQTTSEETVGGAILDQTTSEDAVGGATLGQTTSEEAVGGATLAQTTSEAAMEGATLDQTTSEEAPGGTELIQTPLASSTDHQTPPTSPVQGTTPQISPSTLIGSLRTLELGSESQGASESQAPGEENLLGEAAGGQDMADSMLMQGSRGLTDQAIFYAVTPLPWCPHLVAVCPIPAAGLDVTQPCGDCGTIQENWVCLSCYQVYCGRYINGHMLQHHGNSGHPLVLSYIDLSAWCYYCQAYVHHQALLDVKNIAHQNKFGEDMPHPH
How it was run: (§1)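 Human recombinant HDAC1 or HDAC6 (0.3 μg) reacted with 10 μM Fluor de Lys-SIRT1 substrate and 5-fold compound dilutions for 60 min at 30 °C. Developer II added for 30 min, fluorescence read at Ex 360/Em 460; IC50 calculated from the readings.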

human recombinant HDAC1 = target: T2, human recombinant HDAC1 (Homo sapiens, UniProt Q13547); assay: HDAC1 enzyme activity inhibition assay (HDAC Fluorimetric Drug Discovery Kit); assay type: biochemical; conditions: human recombinant HDAC1, Fluor de Lys substrate, 30° C. 60 minutes
T2 construct: purchased Enzo Life Science BML-SE456
T2 sequence (Q13547 whole entry): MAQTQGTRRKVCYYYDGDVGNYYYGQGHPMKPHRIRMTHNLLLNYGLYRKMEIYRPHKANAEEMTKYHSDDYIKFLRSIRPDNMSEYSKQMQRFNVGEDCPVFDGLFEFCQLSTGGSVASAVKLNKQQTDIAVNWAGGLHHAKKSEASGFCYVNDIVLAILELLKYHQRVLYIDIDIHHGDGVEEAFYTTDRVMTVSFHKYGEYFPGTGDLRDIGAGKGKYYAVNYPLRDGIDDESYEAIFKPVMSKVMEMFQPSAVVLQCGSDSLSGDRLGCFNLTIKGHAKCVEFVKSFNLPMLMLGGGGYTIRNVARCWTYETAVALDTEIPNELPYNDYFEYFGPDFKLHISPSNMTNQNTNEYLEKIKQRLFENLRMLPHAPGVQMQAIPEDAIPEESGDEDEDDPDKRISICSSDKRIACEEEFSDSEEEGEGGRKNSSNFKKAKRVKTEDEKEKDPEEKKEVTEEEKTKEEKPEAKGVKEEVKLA
How it was run: as §1

Row | SMILES | HDAC6 selectivity (fold) (human recombinant HDAC6) | IC50 (human recombinant HDAC6) | IC50 (human recombinant HDAC1)
1 | COc1cccc(N(Cc2ccc(-c3nnc(C(F)F)o3)cc2)C(=O)N2CCN(C3COC3)CC2)c1 [Compound 21948, N-(4-(5-(Difluoromethyl)-1,3,4-oxadiazol-2-yl)benzyl)-N-(3-methoxyphenyl)-4-(oxetan-3-yl)piperazine-1-carboxamide] | 188 fold | 0.246 µM | 46.3 µM
2 | O=C(NCCN1CCS(=O)(=O)CC1)N(Cc1ccc(-c2nnc(C(F)F)o2)cc1F)c1ccccc1 [Compound 21985, 1-(4-(5-(Difluoromethyl)-1,3,4-oxadiazol-2-yl)-2-fluorobenzyl)-3-(2-(1,1-dioxidothiomorpholino)ethyl)-1-phenylurea] | 480 fold | 0.045 µM | 21.4 µM

The next lines start with the values.

Row | HDAC6 selectivity (fold) (human recombinant HDAC6) | IC50 (human recombinant HDAC6) | IC50 (human recombinant HDAC1) | SMILES
3 | 611 fold | 0.048 µM | 29.6 µM | O=C(N1CCN(C2COC2)CC1)N(Cc1ccc(-c2nnc(C(F)F)o2)cc1F)c1cccc(Cl)c1 [Compound 21943, N-(3-Chlorophenyl)-N-(4-(5-(difluoromethyl)-1,3,4-oxadiazol-2-yl)-2-fluorobenzyl)-4-(oxetan-3-yl)piperazine-1-carboxamide]
4 | 383 fold | 0.126 µM | 48.3 µM | COc1cccc(N(Cc2ccc(-c3nnc(C(F)F)o3)cc2F)C(=O)N2CCN(C3COC3)CC2)c1 [Compound 21949, N-(4-(5-(Difluoromethyl)-1,3,4-oxadiazol-2-yl)-2-fluorobenzyl)-N-(3-methoxyphenyl)-4-(oxetan-3-yl)piperazine-1-carboxamide]
5 | 245 fold | 0.145 µM | 35.7 µM | O=C(N1CCN(C2COC2)CC1)N(Cc1ccc(-c2nnc(C(F)F)o2)cc1)c1ccccc1 [Compound 21954, N-(4-(5-(Difluoromethyl)-1,3,4-oxadiazol-2-yl)benzyl)-4-(oxetan-3-yl)-N-phenylpiperazine-1-carboxamide]
